Kd and GI50 data for seven compounds are collected here from patent publication US20260159520A1, “HETEROBIFUNCTIONAL COMPOUNDS AND METHODS OF TREATING DISEASE” (Halda Therapeutics OpCo, Inc., priority 2022, published 2026).

In test [1] the target is T1, androgen receptor (Homo sapiens, UniProt P10275).
T1 construct: endogenous in cells; host or cells: unnamed cells (cytosol fraction)
T1 sequence (P10275 1-920): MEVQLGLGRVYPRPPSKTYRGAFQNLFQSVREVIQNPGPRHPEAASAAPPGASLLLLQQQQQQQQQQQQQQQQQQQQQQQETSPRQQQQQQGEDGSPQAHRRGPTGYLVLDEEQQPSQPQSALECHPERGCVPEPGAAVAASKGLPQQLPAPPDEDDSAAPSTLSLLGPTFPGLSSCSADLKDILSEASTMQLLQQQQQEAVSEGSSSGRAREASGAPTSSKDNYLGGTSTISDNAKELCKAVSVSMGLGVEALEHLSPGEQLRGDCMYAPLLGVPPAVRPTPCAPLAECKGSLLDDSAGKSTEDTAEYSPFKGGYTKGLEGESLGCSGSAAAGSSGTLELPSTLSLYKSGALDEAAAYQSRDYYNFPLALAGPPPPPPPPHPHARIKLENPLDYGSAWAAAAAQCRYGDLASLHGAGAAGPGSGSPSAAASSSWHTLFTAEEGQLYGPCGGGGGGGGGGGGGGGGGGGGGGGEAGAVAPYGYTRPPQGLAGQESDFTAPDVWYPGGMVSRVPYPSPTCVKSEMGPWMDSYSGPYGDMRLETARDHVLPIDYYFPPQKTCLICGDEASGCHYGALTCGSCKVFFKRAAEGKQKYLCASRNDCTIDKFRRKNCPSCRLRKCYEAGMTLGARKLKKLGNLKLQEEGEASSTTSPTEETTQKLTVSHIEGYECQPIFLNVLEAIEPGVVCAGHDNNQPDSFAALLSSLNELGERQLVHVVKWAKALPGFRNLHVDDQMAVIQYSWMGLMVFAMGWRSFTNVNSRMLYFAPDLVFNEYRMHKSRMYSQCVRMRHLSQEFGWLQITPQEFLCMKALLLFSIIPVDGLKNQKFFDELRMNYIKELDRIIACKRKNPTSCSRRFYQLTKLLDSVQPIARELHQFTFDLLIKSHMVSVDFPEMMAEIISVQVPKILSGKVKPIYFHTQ
Nature of the test: Binding affinity to androgen receptor ([3H]methyltrienolone radioligand, cell cytosol). Conditions: Table 6. How it is done:
Fractions of cell cytosol ([…]) were incubated for 24 hr at 4° C. with 1 nM [^3H]methyltrienolone in the absence or presence of the test compound in a buffer containing 25 mM Hepes-Tris (pH 7.4), 1 mM EDTA, 10 mM Na2MoO4, 2 mM DTT, 5 μM triamcinolone acetonide, and 10% glycerol. Nonspecific binding was determined in the presence of 1 μM testosterone. Following incubation, the samples were filtered rapidly under vacuum through glass fiber filters (GF/B, Packard) presoaked with 0.3% PEI and rinsed several times with ice-cold 50 mM Tris-HCl using a 96-sample cell harvester (Unifilter, Packard). The filters were dried then counted for radioactivity in a scintillation counter (Topcount, Packard) using a scintillation cocktail (Microscint 0, Packard). The results are expressed as a percent inhibition of the control radioligand specific binding. The standard reference compound is testosterone, which is tested in each experiment at several concentrations to obtain a competition curve from which its IC50 is calculated.

For test [2], the system named is T-Rex 293 cell line SC3 cells having increased expression of androgen receptor protein. Nature of the test: Cellular growth inhibition, T-Rex 293 SC3 cells with doxycycline (increased androgen receptor expression). Type of test: cell-based. As to conditions: with 10 ng/mL doxycycline (increased androgen receptor), 72 hours, CellTiter-Glo 2.0. A digest of the protocol:
(§1)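 Doxycycline (10 ng/mL) was either included or omitted to toggle wild-type androgen receptor expression in SC3 cells, a T-Rex 293 clone, grown in stripped-serum, phenol red-free medium. After 72 hours with compound, viable cells were quantified by CellTiter-Glo 2.0.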
(Cellular ATP, detected with luciferase, serves as a proxy for viable cell number.)

In test [3] the test system is VCaP cells. The experiment in a line: Cellular growth inhibition assay for VCaP cells. In kind it is cell-based. Conditions: Homo sapiens, 72 hours, CellTiter-Glo 2.0.
Test [4] deals with T-Rex 293 cell line SC3 cells lacking increased expression of androgen receptor protein. The experiment in a line: Cellular growth inhibition, T-Rex 293 SC3 cells without doxycycline. In kind it is cell-based. As to conditions: not exposed to doxycycline, 72 hours, CellTiter-Glo 2.0. A digest of the protocol: as §1
The target in test [5] is T2, CDK9 (Homo sapiens, UniProt P50750).
T2 construct: made in house; host or cells: E. coli BL21-derived host (T7 phage) or HEK-293 ('BEK-293' [sic])
Nature of the test: KdELECT binding assay, CDK9. As to conditions: CDK9, Table 7. How it is done:
Compounds were tested using a KdELECT. Kinase-tagged T7 phage strains were prepared in an E. coli host derived from the BL21 strain. E. coli were grown to log-phase and infected with T7 phage and incubated with shaking at 32° C. until lysis. The lysates were centrifuged and filtered to remove cell debris. The remaining kinases were produced in BEK-293 cells and subsequently tagged with DNA for qPCR detection. Streptavidin-coated magnetic beads were treated with biotinylated small molecule ligands for 30 minutes at room temperature to generate affinity resins for kinase assays. The liganded beads were blocked with excess biotin and washed with blocking buffer (SeaBlock (Pierce), 1% BSA, 0.05% Tween 20, 1 mM DTT) to remove unbound ligand and to reduce non-specific binding. Binding reactions were assembled by combining kinases, liganded affinity beads, and test compounds in 1× binding buffer (20% SeaBlock, 0.17×PBS, 0.05% Tween 20, 6 mM DTT). Test compounds were prepared as 111× stocks in 100% DMSO. Kd values were determined using an 11-point 3-fold compound dilution series with three DMSO control points. All compounds for Kd measurements are distributed by acoustic transfer (non-contact dispensing) in 100% DMSO. The compounds were then diluted directly into the assays such that the final concentration of DMSO was 0.9%. All reactions performed in polypropylene 384-well plate. Each was a final volume of 0.02 mL. The assay plates were incubated at room temperature with shaking for 1 hour and the affinity beads were washed with wash buffer (lx PBS, 0.05% Tween 20). The beads were then re-suspended in elution buffer (lx PBS, 0.05% Tween 20, 0.5 μM nonbiotinylated affinity ligand) and incubated at room temperature with shaking for 30 minutes. The kinase concentration in the eluates was measured by qPCR.

T2 sequence (P50750 whole entry): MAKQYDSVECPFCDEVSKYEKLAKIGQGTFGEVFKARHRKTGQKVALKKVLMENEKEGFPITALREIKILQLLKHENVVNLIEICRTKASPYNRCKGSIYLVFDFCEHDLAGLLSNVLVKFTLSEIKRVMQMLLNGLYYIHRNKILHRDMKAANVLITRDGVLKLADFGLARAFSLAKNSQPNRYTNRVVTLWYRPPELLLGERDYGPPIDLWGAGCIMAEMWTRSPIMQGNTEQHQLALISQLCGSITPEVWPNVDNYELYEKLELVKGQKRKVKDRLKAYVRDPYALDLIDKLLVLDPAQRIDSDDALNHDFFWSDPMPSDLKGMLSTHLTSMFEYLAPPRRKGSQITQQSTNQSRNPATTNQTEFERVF

As usually defined, the Kd is the constant that tells how readily two partners part at equilibrium. A lower Kd goes with a tighter complex. The GI50 is the concentration that inhibits growth by half. High values mean lower sensitivity of the cells, low ones greater sensitivity of the cells. In turn, `CCc1cnn2c(NCc3ccc(OCCOCCN(C)C45CC(N(C)c6ncc(C(=O)N[C@H]7C(C)(C)[C@H](Oc8ccc(C#N)c(Cl)c8)C7(C)C)cn6)(C4)C5)nc3)cc(N3CCCC[C@H]3CCO)nc12` [Compound I-83] displayed a dissociation constant (Kd) in test [1] of under 0.05 µM. In addition, the GI50 in test [2] is under 0.1 µM; in test [3], 0.1 to 1 µM; in test [4] it was under 0.1 µM.
`CCc1cnn2c(NCc3ccc(OCCCCCCCCOC4CCN(c5ncc(C(=O)N[C@H]6C(C)(C)[C@H](Oc7ccc(C#N)c(Cl)c7)C6(C)C)cn5)CC4)nc3)cc(N3CCCC[C@H]3CCO)nc12` [Compound I-31]: the dissociation constant (Kd) in test [1] and in test [5] was over 2.5 µM in each case. Besides, the concentration for 50% growth inhibition (GI50) in test [2] and in test [4] was over 3.5 µM throughout.
As for `CCc1cnn2c(N(C)Cc3ccc(OCCOCCOCCOC4CCN(c5ncc(C(=O)N[C@H]6C(C)(C)[C@H](Oc7ccc(C#N)c(Cl)c7)C6(C)C)cn5)CC4)nc3)cc(N3CCCC[C@H]3CCO)nc12` [Compound I-25], the figures for the dissociation constant (Kd) in test [1] and in test [5] were under 0.05 µM and over 2.5 µM, respectively. Besides, the GI50 in test [2] and in test [4] was over 3.5 µM in each case.
Regarding `CCc1cnn2c(NCc3ccc(OCCCN4CCN(CC5CCN(c6cnc(C(=O)N[C@H]7C(C)(C)[C@H](Oc8ccc(C#N)c(Cl)c8)C7(C)C)nc6)CC5)CC4)nc3)cc(N3CCCC[C@@H]3CCO)nc12` [Compound I-58, N-((1r,3r)-3-(3-chloro-4-cyanophenoxy)-2,2,4,4-tetramethylcyclobutyl)-5-(4-((4-(3-((5-(((3-ethyl-5-((R)-2-(2-hydroxyethyl)piperidin-1-yl)pyrazolo[1,5-a]pyrimidin-7-yl)amino)methyl)pyridin-2-yl)oxy)propyl)piperazin-1-yl)methyl)piperidin-1-yl)pyrimidine-2-carboxamide], the Kd in test [1] was 0.5 to 2.5 µM. Moreover, the concentration for 50% growth inhibition (GI50) was 0.1 to 1 µM in test [2], 0.1 to 1 µM in test [3] and under 0.1 µM in test [4].
For the compound `CCc1cnn2c(N(C)Cc3ccc(OCCOCCOCCOCCOCCN(C)c4ncc(C(=O)N[C@H]5C(C)(C)[C@H](Oc6ccc(C#N)c(Cl)c6)C5(C)C)cn4)nc3)cc(N3CCCC[C@H]3CCO)nc12` [Compound I-12], the Kd in test [1] was under 0.05 µM; in test [5], over 2.5 µM. The concentration for 50% growth inhibition (GI50) in test [2] and in test [4] was over 3.5 µM throughout.
`CCc1cnn2c(NCc3ccc(OCCCN4CCN(CCCN(C)c5ncc(C(=O)N[C@H]6C(C)(C)[C@H](Oc7ccc(C#N)c(Cl)c7)C6(C)C)cn5)CC4)nc3)cc(N3CCCC[C@H]3CCO)nc12` [Compound I-6, N-((1r,3r)-3-(3-chloro-4-cyanophenoxy)-2,2,4,4-tetramethylcyclobutyl)-2-((3-(4-(3-((5-(((3-ethyl-5-((S)-2-(2-hydroxyethyl)piperidin-1-yl)pyrazolo[1,5-a]pyrimidin-7-yl)amino)methyl)pyridin-2-yl)oxy)propyl)piperazin-1-yl)propyl)(methyl)amino)pyrimidine-5-carboxamide]: the Kd in test [1] is under 0.05 µM. For the same compound, the concentration for 50% growth inhibition (GI50) is under 0.1 µM in test [2] and 0.1 to 1 µM in test [4].
Consider `CCc1cnn2c(NCc3ccc(OCCCN4CCN(CCCOC5CCN(c6ncc(C(=O)N[C@H]7C(C)(C)[C@H](Oc8ccc(C#N)c(Cl)c8)C7(C)C)cn6)CC5)CC4)nc3)cc(N3CCCC[C@H]3CCO)nc12` [Compound I-11], for which the dissociation constant Kd in test [1] was under 0.05 µM. For the same compound, the GI50 was under 0.1 µM in test [2], under 0.1 µM in test [3] and 0.1 to 1 µM in test [4].
